Entries after “also recorded” stand apart in the source; their conditions may differ.
Assays:
[1] = Preliminary in vivo pharmacokinetic evaluation, IP, plasma and brain concentrations; parameters: species or system Sprague-Dawley rats
[2] = system: neonatal murine astrocytes; experiment: Neonatal murine astrocytes activated with TNFα and IL-1β: qPCR and ELISA; format: cell-based, mouse
Procedure: Mouse primary astrocyte cultures. […] The cell suspension was then cultured at 37° C. in humidified 5% CO2 on poly-L-Lysine (#P4707, Sigma-Aldrich) pre-coated cell culture flasks. Medium was replaced every 3-5 days. The cells reached confluence after 7-10 days. Microglia were separated by shaking the glia culture at 225 rpm at 37° C. for at least 3 h and washing extensively with 1×PBS. Astrocytes were detached by mild trypsinization with Trypsin-EDTA (0.05%) at 37° C. and plated. […] Both cell types were then cultured separately for downstream procedures. […] Finally, microglia and astrocytes of each condition where magnetically separated as before and lysed for downstream gene expression analysis.
RNA isolation, cDNA synthesis and qPCR. […] Data were analyzed by the ddCt method by normalizing the expression of each gene to GAPDH and HPRT for mouse and GAPDH for human and then to the control group. All probes are listed below. • Mouse: EphB3 Mm00802553_m1, Ccl2 Mm00441242_m1, Csf2 Mm01290062_m1, Nos2 Mm00440502_m1, Tnf Mm00443258 m1, Il1b Mm00434228_m1, 116 Mm00446190_m1, GAPDH Mm99999915_g1. • Human: CCL2 Hs00234140_m1, CSF2 Hs00929873 ml, NOS2 Hs01075529_m1, TNF • Hs00174128_m1, IL6 Hs00985639_m1, IL1b Hs01555410_m1, GAPDH Hs02758991_g1.

[3] = Aqueous solubility; format: physicochemical; settings: aqueous solution, aqueous buffer; oxalate salt, pH 7.4; read-out: aqueous solubility of the oxalate salt
[4] = molecular target: T1, EphB3 (Homo sapiens, UniProt P54753); experiment: EphB3 radiometric kinase activity assay (33P ATP filter binding); format: biochemical; settings: FIG. 1C
T1 sequence (P54753 34-998): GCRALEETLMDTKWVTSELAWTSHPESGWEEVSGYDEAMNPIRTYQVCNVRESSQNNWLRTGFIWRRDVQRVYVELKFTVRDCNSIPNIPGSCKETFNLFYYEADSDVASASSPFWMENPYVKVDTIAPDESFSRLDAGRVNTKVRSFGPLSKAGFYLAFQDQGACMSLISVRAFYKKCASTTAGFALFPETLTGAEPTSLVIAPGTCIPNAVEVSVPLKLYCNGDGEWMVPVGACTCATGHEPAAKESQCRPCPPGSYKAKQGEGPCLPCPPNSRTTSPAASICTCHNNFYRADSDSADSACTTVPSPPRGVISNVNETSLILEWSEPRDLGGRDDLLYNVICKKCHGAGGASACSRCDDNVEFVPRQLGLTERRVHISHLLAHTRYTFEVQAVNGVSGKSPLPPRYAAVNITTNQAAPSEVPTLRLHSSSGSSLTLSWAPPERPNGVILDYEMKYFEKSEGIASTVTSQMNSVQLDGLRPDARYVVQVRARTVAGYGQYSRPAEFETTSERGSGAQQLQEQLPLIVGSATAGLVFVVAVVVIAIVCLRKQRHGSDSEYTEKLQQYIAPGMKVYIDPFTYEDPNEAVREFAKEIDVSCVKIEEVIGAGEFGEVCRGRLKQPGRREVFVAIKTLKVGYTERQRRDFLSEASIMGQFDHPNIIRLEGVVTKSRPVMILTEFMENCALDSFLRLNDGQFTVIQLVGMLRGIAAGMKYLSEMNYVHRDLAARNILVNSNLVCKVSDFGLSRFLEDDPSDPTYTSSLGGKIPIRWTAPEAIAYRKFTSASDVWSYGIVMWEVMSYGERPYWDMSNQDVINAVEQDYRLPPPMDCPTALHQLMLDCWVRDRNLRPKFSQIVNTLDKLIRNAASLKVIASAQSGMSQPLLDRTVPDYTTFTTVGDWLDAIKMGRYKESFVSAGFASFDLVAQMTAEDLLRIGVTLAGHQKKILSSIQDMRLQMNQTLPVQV
Procedure: EphB3 radiometric kinase activity assay. To study the EphB3 kinase activity, a radioactive filter binding assay using 33P ATP was performed as described at the […] International Centre for Kinase profiling. […] The mix was harvested onto P81 filter plates and counts were read on a Topcount NXT.

[5] = system: microglia; experiment: Neonatal murine microglia stimulated with LPS: qPCR; format: cell-based, mouse; settings: induced by LPS stimulation
Procedure: RNA isolation, cDNA synthesis and qPCR. RNA was extracted from in vitro generated samples with RNeasy Mini kit (#74106, QIAGEN) and cDNA was prepared by using the High-Capacity cDNA Reverse Transcription Kit (#4368813, Life Technologies), both according to the manufacturer's protocol. Gene expression was measured by qPCR with Taqman Fast Universal PCR Master Mix (#4367846, Life Technologies). Data were analyzed by the ddCt method by normalizing the expression of each gene to GAPDH and HPRT for mouse and GAPDH for human and then to the control group. All probes are listed below. • Mouse: EphB3 Mm00802553_m1, Ccl2 Mm00441242_m1, Csf2 Mm01290062_m1, Nos2 Mm00440502_m1, Tnf Mm00443258 m1, Il1b Mm00434228_m1, 116 Mm00446190_m1, GAPDH Mm99999915_g1. • Human: CCL2 Hs00234140_m1, CSF2 Hs00929873 ml, NOS2 Hs01075529_m1, TNF • Hs00174128_m1, IL6 Hs00985639_m1, IL1b Hs01555410_m1, GAPDH Hs02758991_g1.

[6] = system: N2A neuronal cells; experiment: Neurotoxicity assay of astrocyte-conditioned medium (LDH release); format: cell-based, mouse; settings: ACM from astrocytes pre-treated with compound, LDH release after 24 h
Procedure: Generation of astrocyte-conditioned medium (ACM). […] After 24 h, cells were extensively washed with 1×PBS, and incubated with fresh astrocyte complete medium for 48 h. Supernatants were spun down and kept at −80° C. until tested in migration and neurotoxicity assays.
Neurotoxicity Assay. N2A neuronal cells (#CCL-131, ATCC) were plated and pre-activated with 100 ng/mL mouse IFNγ (#485-MI-100; R&D Systems) for 24 h.
Thereafter, after extensive washing with 1×PBS, medium was replaced with ACM and after 24 h the supernatant was harvested for cytotoxicity evaluation by measuring LDH release with CytoTox 96 nonradioactive cytotoxicity assay kit (#G1780, Promega) following the manufacturer's protocol.

O=C(Nc1ccccc1Cl)c1cnc2ccc(C3CCNCC3)cn12 [A38]
brain Cmax ([1]; IP 3 mg/kg in 100% saline, male Sprague-Dawley rats, mono-oxalate salt): 0.331 µg/mL | Pgp substrate ([1]; inferred from the brain to plasma ratio): not a Pgp substrate | Kp ([1]; rat, brain/plasma, IP 3 mg/kg, male Sprague-Dawley rats, mono-oxalate salt, read-out: brain to plasma ratio): 1.5 | Cmax ([1]; rat, plasma, IP 3 mg/kg in 100% saline, male Sprague-Dawley rats, mono-oxalate salt): 0.221 µg/mL | half-life ([1]; rat, plasma, IP 3 mg/kg in 100% saline, male Sprague-Dawley rats, mono-oxalate salt, read-out: plasma half-life T1/2 (converted)): 2.25 h | 116 expression in astrocytes (qPCR) [2]: reduced 116 expression in astrocytes in a dose-dependent manner | production of CCL2 (ELISA) [2]: decreased | production of IL-6 (ELISA) [2]: decreased | production of TNFα (ELISA) [2]: decreased | solubility [3]: > 10 mg/mL | EphB3 tyrosine kinase activity in a cell-free assay [4]: inhibited EphB3 tyrosine kinase activity in a dose-dependent manner | microglial expression of Nos2 [5]: no effect | microglial expression of Tnfa [5]: no effect | ACM neurotoxic activity [6]: decrease in neurotoxicity; also recorded: reduced ACM neurotoxic

Source: patent US20240189289A1, “INHIBITORS OF EPHB3 SIGNALING” (The Brigham and Women`s Hospital, Inc., priority 2021, published 2024)
